Test results reported in paper PMC10017685 (Nature Communications, 2023).
Values after ≈ are worked out from the molar mass of the structure shown. Where two headings read alike, the source gives them in different places. Peptide text beside a SMILES is read from it.

Columns and labels:
[1] = tested on: Sheep red blood cells; assay: Hemolysis assay (HC50); format: cell-based
Procedure: The hemolysis assay was conducted according to the procedure described previously. Sheep red blood cells (Defibrillated Sheep Blood, Graso, Poland) were used. […] Then the solution of RBCs was added to each well (100 μL with a 4% concentration of erythrocytes (v/v). The control wells for 0 and 100% hemolysis were also prepared: RBCs suspended in PBS and 1% of Triton-X 100, respectively. After that the plates were incubated for 60 min at 37 °C and then centrifuged at 800 × g for 10 min at 4 °C (Sorvall ST 16R Centrifuge, Thermo Scientific). The supernatant was carefully […] to new microtiter plates and the release of hemoglobin was measured at 590 nm (Multiskan™ GO Microplate Spectrophotometer, Thermo Scientific). Hemolysis for each concentration was calculated as the percentage of control with 100% hemolysis. All experiments were conducted in triplicate. The final values of HC50 were computed using ic50.tk tool.

[2] = tested on: E. coli ATCC 25922; details: ref https://dbaasp.org/peptide-card?id=8199; cited from earlier work
[3] = tested on: S. aureus ATCC 29212; details: ref https://dbaasp.org/peptide-card?id=8199; cited from earlier work
Source text: page 7: Reviewer #2 (Remarks to the Author): The authors present a new method, HydrAMP, for antimicrobial peptide generation. The generative model of HydrAMP is a decoder, which produces a distribution over peptides in order to mimic the synthesis of the antimicrobial peptides in biological experiments. HydrAMP is the first model trained and used to identify active analogs of non-AMP prototypes. During training, they introduce an additional encoder to provide a variational approximation to help optimize the decoder. Their method is based on the conditional VAE model, which provides the foundat ...

[4] = tested on: erythrocytes; details: cited from earlier work
Source text: Supplement 41467_2023_36994_MOESM6_ESM.xlsx, sheet "MD calibration" | column: Hemolytic activity (HC50); Comment

[5] = tested on: E. coli ATCC 25922; format: cell-based, Escherichia coli
Procedure: Fresh cultures were used in antimicrobial assay. […] Moreover MBC was evaluated. […] All experiments were conducted in triplicate.

[6] = tested on: E. coli ATCC 43827; format: cell-based, Escherichia coli
Procedure: Verification of antimicrobial activity of the synthesized analogs was conducted on reference strains of E. coli ATCC 25922 and ATCC 43827 in the first phase of the experimental validation, and S. aureus ATCC 33591, E. coli ATCC 25922, E. coli ATCC 43827, A. baumannii ATCC BAA 1605, P. aeruginosa ATCC 9027 in the second phase.
All the strains were stored at -80 °C in Roti®-Store cryo vials (Carl Roth GmbH, Germany) and before the tests were transferred into fresh Mueller-Hinton Medium (BioMaxima, Poland) and incubated for 24 h at 37 °C. Fresh cultures were used in antimicrobial assay. The MIC values were evaluated by the broth microdilution method according to Clinical and Laboratory Standards Institute Protocol[86]. […] The experiments were conducted on 96-well microtiter plates, with a final volume of 100 μL. Inoculums densities were adjusted spectrophotometrically (Multiskan™ GO Microplate Spectrophotometer, Thermo Scientific) at the wavelength of 600 nm. The MICs were taken as the lowest drug concentration at which a visible growth of microorganisms was inhibited[87]. Moreover MBC was evaluated. After MIC examination the samples from MIC well and two higher concentrations were seeded on the agar plates. Section with no visible growth of bacterial colonies was reported as the MBC for each strain and compound. All experiments were conducted in triplicate. […]

[7] = tested on: E. coli ATCC 25922; set-up: method as in DBAASP; details: origin dbaasp_ecoli; ref DBAASP; cited from earlier work
[8] = experimentally confirmed activity, strain not given; ref Supplementary Data 3; cited from earlier work
Source text: 21 (1 picture or pasted object on this page, not shown here)

[9] = tested on: human erythrocytes; set-up: method as in DBAASP; details: toxicity class label 1 or 0, meaning of the labels not given; DBAASP HC50 data, human erythrocytes; ref DBAASP; cited from earlier work
[10] = Supplementary Data 5F, analogue generation without additional preselection
[11] = first experimental round, broth microdilution (CLSI), Mueller-Hinton Broth, 0.5 × 10^5 CFU/mL, 1-[…], 18 h at 37 °C, triplicate

## CC[C@H](C)[C@H](N)C(=O)N[C@@H](CC(C)C)C(=O)N[C@@H](CCCNC(=N)N)C(=O)N[C@@H](Cc1c[nH]c2ccccc12)C(=O)N1CCC[C@H]1C(=O)N[C@@H](Cc1c[nH]c2ccccc12)C(=O)N[C@@H](Cc1c[nH]c2ccccc12)C(=O)N1CCC[C@H]1C(=O)N[C@@H](Cc1c[nH]c2ccccc12)C(=O)N[C@@H](CCCNC(=N)N)C(=O)N[C@@H](CCCNC(=N)N)C(=O)N[C@@H](CCCCN)C(N)=O [Omiganan] (H-ILRWPWWPWRRK-NH2)
[1]
  HC50: > 512 µg/mL
[1]; red cells of sheep
  HC50: >512 µg/mL

## FFSLIPSLVGGLISAFK [Stigmurin]
[2]
  MIC E. coli ATCC 25922: > 139 µM
[3]
  MIC S. aureus ATCC 29212: 8.68 µM

## CC[C@H](C)[C@H](NC(=O)[C@H](CCCCN)NC(=O)[C@H](CC(N)=O)NC(=O)[C@@H](NC(=O)[C@@H](NC(=O)[C@H](CCCCN)NC(=O)[C@@H](NC(=O)[C@H](C)NC(=O)[C@@H](NC(=O)[C@H](Cc1c[nH]cn1)NC(=O)CNC(=O)[C@H](C)NC(=O)[C@H](CC(C)C)NC(=O)[C@H](CC(=O)O)NC(=O)[C@H](CCCCN)NC(=O)[C@H](C)NC(=O)[C@H](C)NC(=O)CNC(=O)[C@H](CCCCN)NC(=O)[C@H](CC(C)C)NC(=O)[C@@H](NC(=O)[C@H](CC(=O)O)NC(=O)[C@H](CC(C)C)NC(=O)[C@@H](NC(=O)CN)C(C)C)[C@@H](C)CC)C(C)C)[C@@H](C)O)C(C)C)[C@@H](C)CC)C(N)=O [Syphaxin] (H-GVLDILKGAAKDLAGHVATKVINKI-NH2)
[1]
  HC50: > 512 µg/mL
[1]; red cells of sheep
  HC50: >512 µg/mL

## FFHHIFRGIVHVGKTIHRLVTG [Piscidin 1]
[4]
  Comment: toxicity: Active broad spetrum, toxic

## CC[C@H](C)[C@H](NC(=O)CNC(=O)[C@H](CO)NC(=O)[C@H](CC(C)C)NC(=O)[C@@H](NC(=O)[C@H](CCCNC(=N)N)NC(=O)CNC(=O)[C@@H](NC(=O)[C@H](CC(C)C)NC(=O)[C@@H]1CCCN1C(=O)[C@H](CC(C)C)NC(=O)[C@@H](N)Cc1ccccc1)[C@@H](C)CC)C(C)C)C(=O)N[C@@H](C)C(N)=O [Temp-P1-3] (H-FLPLIGRVLSGIA-NH2)
[5]; [10]
  E. coli ATCC 25922 MIC: 512 µg/mL
[5]; [11]
  MIC E. coli ATCC 25922: 512 µg/mL (≈ 378 µM)
[6]; [10]
  E. coli ATCC 43827 MIC: 512 µg/mL
[6]; [11]
  MIC E. coli ATCC 43927: 512 µg/mL (≈ 378 µM)

## KDRPKKPGLCPLIWWLIIKVG
[7]
  Class (activity against E. coli ATCC 25922 in dedicated activity dataset): 1 (positive (active) examples are peptides selected from DBAASP with experimentally verified MIC≤ 101.5≃ 32 against E. coli ATCC 25922)

## LKKLLKLLKPLLKL
[7]
  Class (activity against E. coli ATCC 25922 in dedicated activity dataset): 1 (positive (active) examples are peptides selected from DBAASP with experimentally verified MIC≤ 101.5≃ 32 against E. coli ATCC 25922)

## CC[C@H](C)[C@H](N)C(=O)NCC(=O)N[C@@H](CCCCN)C(=O)N[C@@H](CCC(=O)O)C(=O)N[C@@H](Cc1ccccc1)C(=O)N[C@@H](CCCCN)C(=O)N[C@@H](CCCNC(=N)N)C(=O)N[C@H](C(=O)N[C@H](C(=O)N[C@@H](CCC(=O)O)C(=O)N[C@@H](CCCNC(=N)N)C(=O)N[C@H](C(=O)N[C@@H](CCCCN)C(=O)N[C@@H](CCCNC(=N)N)C(=O)N[C@@H](Cc1ccccc1)C(=O)N[C@@H](CC(C)C)C(=O)N[C@@H](CCCNC(=N)N)C(=O)N[C@@H](CCC(=O)O)C(=O)N[C@@H](CC(C)C)C(=O)N[C@H](C(=O)N[C@@H](CCCNC(=N)N)C(=O)N1CCC[C@H]1C(=O)N[C@@H](CC(C)C)C(=O)N[C@@H](CCCNC(=N)N)C(N)=O)C(C)C)[C@@H](C)CC)C(C)C)[C@@H](C)CC [OP-145] (H-IGKEFKRIVERIKRFLRELVRPLR-NH2)
[1]
  HC50: > 512 µg/mL
[1]; red cells of sheep
  HC50: >512 µg/mL

## FLRFIGSVIHGIGHLVHHIGVAL [Clavaspirin]
[8]
  MIC (moderately active AMP of MD validation set): 64 µg/mL

## KWCFRVCARGICYRRCR
[7]
  Class (activity against E. coli ATCC 25922 in dedicated activity dataset): 1 (positive (active) examples are peptides selected from DBAASP with experimentally verified MIC≤ 101.5≃ 32 against E. coli ATCC 25922)

## GLLSLSLGKLL
[7]
  Class (activity against E. coli ATCC 25922 in dedicated activity dataset): 1 (positive (active) examples are peptides selected from DBAASP with experimentally verified MIC≤ 101.5≃ 32 against E. coli ATCC 25922)

## CC[C@H](C)[C@H](NC(=O)[C@H](Cc1ccccc1)NC(=O)[C@H](CCCCN)NC(=O)[C@H](CC(N)=O)NC(=O)[C@H](CC(C)C)NC(=O)[C@H](CCC(N)=O)NC(=O)CN)C(=O)N[C@@H](CCCCN)C(=O)N[C@@H](CCCCN)C(=O)N[C@@H](C)C(=O)N[C@@H](CCC(N)=O)C(=O)N[C@@H](CCCNC(=N)N)C(=O)N[C@@H](CCCCN)C(=O)N[C@@H](Cc1ccccc1)C(=O)N[C@@H](Cc1c[nH]cn1)C(=O)N[C@@H](CCC(=O)O)C(=O)N[C@@H](CCCCN)C(=O)N[C@@H](Cc1ccccc1)C(=O)N[C@@H](C)C(=O)N[C@@H](CCCCN)C(N)=O [GQ20] (H-GQLNKFIKKAQRKFHEKFAK-NH2)
[1]
  HC50: > 512 µg/mL
[1]; red cells of sheep
  HC50: >512 µg/mL

## CC[C@H](C)[C@H](NC(=O)CN)C(=O)NCC(=O)N[C@@H](CCCCN)C(=O)N[C@@H](Cc1ccccc1)C(=O)N[C@@H](CC(C)C)C(=O)N[C@@H](CCCCN)C(=O)N[C@@H](CCCCN)C(=O)N[C@@H](C)C(=O)N[C@@H](CCCCN)C(=O)N[C@@H](CCCCN)C(=O)N[C@@H](Cc1ccccc1)C(=O)NCC(=O)N[C@@H](CCCCN)C(=O)N[C@@H](C)C(=O)N[C@@H](Cc1ccccc1)C(=O)N[C@H](C(=O)N[C@@H](CCCCN)C(=O)N[C@H](C(=O)N[C@@H](CC(C)C)C(=O)N[C@@H](CCCCN)C(=O)N[C@@H](CCCCN)C(N)=O)[C@@H](C)CC)C(C)C [Pexiganan] (H-GIGKFLKKAKKFGKAFVKILKK-NH2)
[1]
  HC50: > 512 µg/mL
[1]; red cells of sheep
  HC50: >512 µg/mL

## GIKDLLKGAAKALVKTVLF [DBAASP_11234]
[9]
  Class (dedicated toxicity dataset used for toxicity classifier evaluation): 0

## VCKRWKKWKRKWKKWCV [DBAASP_16449]
[9]
  Class (dedicated toxicity dataset used for toxicity classifier evaluation): 0

## FWGALAKGALKLIPSLFSSFSKKD [DBAASP_948]
[9]
  Class (dedicated toxicity dataset used for toxicity classifier evaluation): 1

## FLSLLPHIASGIASLVSKF [DBAASP_12382]
[9]
  Class (dedicated toxicity dataset used for toxicity classifier evaluation): 1

## ALWKTMLKKLGTMA [DBAASP_10092]
[9]
  Class (dedicated toxicity dataset used for toxicity classifier evaluation): 0

## KIFGAIWPLALGALKNLIK [DBAASP_7010]
[9]
  Class (dedicated toxicity dataset used for toxicity classifier evaluation): 1

## LKKVLKAAA [DBAASP_7359]
[9]
  Class (dedicated toxicity dataset used for toxicity classifier evaluation): 0

## FLQHIIGALGHLF [DBAASP_10244]
[9]
  Class (dedicated toxicity dataset used for toxicity classifier evaluation): 0
